Here are results for 23 molecules from ChEMBL document CHEMBL5236595, “JDQ443, a Structurally Novel, Pyrazole-Based, Covalent Inhibitor of KRASG12C for the Treatment of Solid Tumors” (J Med Chem, 2022).

For data set [1], the system named is GTPase KRas (Homo sapiens), P01116 [G12C]. The data set can be described thus: Displacement of [acrylamide-2,3-3H2]-N-(3-fluoro-4-(2-methyl-3-(5-methyl-1H- indazole-4-yl)-1H-pyrrolo[ 2,3-b]pyridin-1-yl)-phenyl from KRAS G12C mutant (unknown origin) assessed as ratio of Kinact/Ki by competitive scintillation proximity assay. In general terms: Scintillation proximity formats need no separation of bound from free tracer.

Data set [2] can be described thus: Cysteine reactivity in pH 7.4 phosphate buffer assessed as compound half life at 2 uM in presence of GSH.
The target in data set [3] is GTPase KRas (Homo sapiens, UniProt P01116, G12C). The data set can be described thus: Inhibition of KRAS G12C mutant in human NCI-H358 cells assessed as reduction in ERK phosphorylation incubated for 6 hrs by MSD assay. It counts as cell-based.
Data set [4] is described as follows: Apparent permeability across apical to basolateral side in MDCK-MDR1 cells at 10 uM after 2 hrs by LC-MS/MS analysis. The data set is classed as ADME, cell-based, Canis lupus familiaris. The note with it: dog.
The nature of data set [5]: Aqueous solubility of compound in pH 6.8. It counts as physicochemical. As to conditions: aqueous medium.
A short description of data set [6]: Lipophilicity, logD of compound at pH 7.4. It counts as physicochemical. As to conditions: buffer.
The nature of data set [7]: Drug concentration in human MIA PaCa-2 cells xenografted mouse blood at 100 mg/kg, po after 40 mins. The data set is classed as ADME, organism-based. The note with it: whole blood, read-out: Drug uptake. In general terms: A xenograft is tissue or cells of one species grown in another, often human tumour cells in immunodeficient mice.
Data set [8] is described as follows: Half life in human MIA PaCa-2 cells xenografted mouse at 100 mg/kg, po. The data set is classed as ADME, organism-based. The note with it: in vivo.
In data set [9] the test system is GTPase KRas (Homo sapiens), P01116 [G12C]. The data set can be described thus: In vivo target occupancy at KRAS G12C mutant in human MIA PaCa-2 cells xenografted mouse assessed as decrease in free KRAS G12C level at 100 mg/kg, po after 3 hrs. It counts as functional, organism-based.
The test system is the same in data set [10]. The data set can be described thus: In vivo target occupancy at KRAS G12C mutant in human MIA PaCa-2 cells xenografted mouse assessed as decrease in free KRAS G12C level at 100 mg/kg, po after 24 hrs. It counts as functional, organism-based.
Data set [11] is described as follows: Aqueous solubility of compound in pH 4. The data set is classed as physicochemical. The note with it: aqueous medium.
Data set [12] in a line: AUC in human MIA PaCa-2 cells xenografted mouse at 30 mg/kg, po. It counts as ADME, organism-based. The arrangement: dose 30 mg/kg, route po. The note with it: in vivo.
Data set [13] can be described thus: Cmax in human MIA PaCa-2 cells xenografted mouse at 30 mg/kg, po. Further details: dose 30 mg/kg, route po. It counts as ADME, organism-based. The note with it: in vivo.
The test system of data set [14] is GTPase KRas (Homo sapiens), P01116 [G12C]. The data set can be described thus: In vivo target occupancy at KRAS G12C mutant in human MIA PaCa-2 cells xenografted mouse assessed as decrease in free KRAS G12C level at 30 mg/kg, po after 3 hrs. The data set is classed as functional, organism-based.
Data set [15] has the same test system. The data set is described as follows: In vivo target occupancy at KRAS G12C mutant in human MIA PaCa-2 cells xenografted mouse assessed as decrease in free KRAS G12C level at 30 mg/kg, po after 24 hrs. The data set is classed as functional, organism-based.
The test system is the same in data set [16]. The data set is described as follows: In vivo target occupancy at KRAS G12C mutant in human MIA PaCa-2 cells xenografted mouse assessed as decrease in […] expression at 30 mg/kg, po after 3 hrs. It counts as functional, organism-based.
The test system is the same in data set [17]. The data set is described as follows: In vivo target occupancy at KRAS G12C mutant in human MIA PaCa-2 cells xenografted mouse assessed as decrease in […] expression at 30 mg/kg, po after 24 hrs. The data set is classed as functional, organism-based.
Data set [18] shares this test system. The data set can be described thus: In vivo target occupancy at KRAS G12C mutant in human MIA PaCa-2 cells xenografted mouse assessed as decrease in free KRAS G12C level at 30 mg/kg, po after 6 hrs. It counts as functional, organism-based.
For data set [19] the test system is unchanged. The data set is described as follows: In vivo target occupancy at KRAS G12C mutant in human MIA PaCa-2 cells xenografted mouse assessed as decrease in […] expression at 30 mg/kg, po after 6 hrs. It counts as functional, organism-based.

The structures appear in SMILES notation. In brackets after ≈: the same amount, converted by molar mass.

Usually IC50 stands for the point on the concentration scale where inhibition reaches its midpoint. One may read the Papp A→B as the apparent permeability from the apical to the basolateral side of a cell layer. The term solubility denotes the dissolved amount per volume that the medium holds. High values mean much dissolved substance, low ones little dissolved substance. By logD is commonly meant lipophilicity at a set pH, counting ionised and neutral species. Usually half-life stands for the time in which the quantity being followed falls by half. A higher half-life goes with slow loss. Usually AUC stands for the area under the concentration-time curve, a measure of exposure. A lower AUC goes with less exposure. In general, Cmax refers to the peak of the concentration-time curve.

Regarding `C=CC(=O)Nc1ccc(-n2nc(C)c(-c3c(C)ccc4[nH]ncc34)c2C)c(F)c1`, in [1], the Ratio is 0.5 mM⁻¹ s⁻¹. Besides, in [2], the T1/2 worked out at 30 min.

With `C=CC(=O)N1CC2(CC(n3nc(-c4ccc5[nH]ncc5c4)c(-c4c(Cl)c(C)cc5[nH]ncc45)c3C)C2)C1`, the Ratio in data set [1] was 116 mM⁻¹ s⁻¹. Besides, the IC50 in data set [3] stood at 20 nM. Besides, in [4], the Papp A→B at 2 h, 10 µM stood at 0.6 ×10⁻⁶ cm/s. This molecule also had a solubility in data set [5] of 10 µM (≈ 5.12 µg/mL). This molecule also gave a logD in data set [6] of 4.6.

Regarding `C=CC(=O)Nc1ccc(-n2nc(C(C)C)c(-c3c(C)ccc4[nH]ncc34)c2C)c(F)c1`, the Ratio in [1] came to 6 mM⁻¹ s⁻¹. Further, the IC50 in [3] was 500 nM. Also, in data set [2], the T1/2 amounted to 20 min.

With `C=CC(=O)N1CC2(CC(n3nc(-c4cccnc4)c(-c4c(Cl)c(C)cc5[nH]ncc45)c3CC#N)C2)C1`, the Ratio in data set [1] is 0.2 mM⁻¹ s⁻¹.

As to `C=CC(=O)N1CC2(CC(n3nc(-c4ccc5cn[nH]c5c4)c(-c4c(Cl)c(C)cc5[nH]ncc45)c3C)C2)C1`, the Ratio in data set [1] was found to be 19 mM⁻¹ s⁻¹. The IC50 in [3] amounted to 50 nM.

Regarding `C=CC(=O)N1CC2(CC(n3nc(-c4ccc5nnccc5c4)c(-c4c(Cl)c(C)cc5[nH]ncc45)c3C)C2)C1`, in [1], the Ratio was 25 mM⁻¹ s⁻¹. For the same molecule, the Papp A→B at 2 h, 10 µM in data set [4] was 6.1 ×10⁻⁶ cm/s. The molecule also came in with a solubility in [5] of 10 µM (≈ 5.24 µg/mL). For the same molecule, the logD in [6] turned out to be 4.1.

Take `C=CC(=O)N1CC2(CC(n3nc(-c4ccccc4)c(-c4c(Cl)c(C)cc5[nH]ncc45)c3C)C2)C1`: in data set [1], the Ratio turned out to be 60 mM⁻¹ s⁻¹. The IC50 in data set [3] came to 20 nM. Besides, the concentration at 40 min in data set [7] was 4000 nM. Besides, the half-life in [8] was 150 min. Moreover, the values for the Occ in [9] and in data set [10] were 20% and 40%, respectively. The molecule further had a solubility in data set [5] of 10 µM (≈ 4.72 µg/mL). For the same molecule, in data set [6], the logD turned out to be 4.9.

For the molecule `C=CC(=O)Nc1ccc(-n2nc(C)c(-c3c(C)ccc4[nH]ncc34)c2C)cc1`, in [1], the Ratio is 0.1 mM⁻¹ s⁻¹.

As for `C=CC(=O)N1CC2(CC(n3nc(-c4ccc5c(cnn5CCN(C)C)c4)c(-c4c(Cl)c(C)cc5[nH]ncc45)c3C)C2)C1`, the Ratio in data set [1] turned out to be 150 mM⁻¹ s⁻¹. Besides, the IC50 in data set [3] was determined as 30 nM. In [4], the Papp A→B at 2 h, 10 µM came out at 0.9 ×10⁻⁶ cm/s. Moreover, in data set [11], the solubility was 850 µM (≈ 496 µg/mL). This molecule also registered a logD in data set [6] of 3.7. For the same molecule, the AUC in data set [12] was 0.5 µM·h. In addition, in [13], the Cmax was found to be 300 nM.

Take `C=CC(=O)N1CC2(CC(n3nc(-c4ccc5c(c4)ncn5C)c(-c4c(Cl)c(C)cc5[nH]ncc45)c3C)C2)C1`: in [1], the Ratio was determined as 24 mM⁻¹ s⁻¹. Moreover, in data set [3], the IC50 was determined as 140 nM. Further, the Papp A→B at 2 h, 10 µM in data set [4] turned out to be 3.8 ×10⁻⁶ cm/s. The concentration in solution in data set [5] (solubility) was 40 µM (≈ 21 µg/mL). The molecule further displayed a logD in data set [6] of 3.9.

For `C=CC(=O)N1CC2(CC(n3nc(-c4cccnc4)c(-c4c(Cl)c(C)cc5[nH]ncc45)c3C)C2)C1`, in [1], the Ratio was 10 mM⁻¹ s⁻¹. Also, the IC50 in data set [3] came out at 90 nM.

Consider `C=CC(=O)N1CC2(CC(n3nc(C4CCCCC4)c(-c4c(Cl)ccc5[nH]ncc45)c3C)C2)C1`, for which the Ratio in data set [1] is 0.9 mM⁻¹ s⁻¹. The IC50 in data set [3] came to 700 nM.

For `C=CC(=O)N1CC2(CC(n3nc(C(C)C)c(-c4c(C)ccc5[nH]ncc45)c3C)C2)C1`, the Ratio in data set [1] is 0.4 mM⁻¹ s⁻¹. The IC50 in data set [3] was determined as 3900 nM.

Take `C=CC(=O)Nc1ccc(-n2nc(C(C)C)c(-c3c(C)ccc4[nH]ncc34)c2C)c(C)c1`: the Ratio in data set [1] was determined as 1.7 mM⁻¹ s⁻¹. The IC50 in [3] is 1500 nM. In addition, the T1/2 in data set [2] worked out at 107 min.

As for `C=CC(=O)Nc1ccc(-n2nc(C(C)C)c(-c3c(C)ccc4[nH]ncc34)c2C)cc1`, the Ratio in data set [1] came out at 0.6 mM⁻¹ s⁻¹.

`C=CC(=O)N1CC2(CC(n3nc(-c4ccc5nn(CCN6CCOCC6)cc5c4)c(-c4c(Cl)c(C)cc5[nH]ncc45)c3C)C2)C1`: the Ratio in [1] amounted to 190 mM⁻¹ s⁻¹. In addition, the IC50 in data set [3] was found to be 10 nM. Also, in data set [4], the Papp A→B at 2 h, 10 µM stood at 2.8 ×10⁻⁶ cm/s. Besides, the solubility in data set [11] was more than 1000 µM; in [5], 30 µM (≈ 18.8 µg/mL). The molecule also yielded a logD in data set [6] of 4.2.

As to `C=CC(=O)N1CC2(CC(n3nc(C4CCCCC4)c(-c4c(C)ccc5[nH]ncc45)c3C)C2)C1`, the Ratio in data set [1] was found to be 0.3 mM⁻¹ s⁻¹.

For `C=CC(=O)N1CC2(CC(n3nc(-c4ccc5c(cnn5CCOC)c4)c(-c4c(Cl)c(C)cc5[nH]ncc45)c3C)C2)C1`, the Ratio in data set [1] came out at 190 mM⁻¹ s⁻¹. Besides, the IC50 in [3] came to 8 nM. The same molecule returned a solubility in data set [5] of 10 µM (≈ 5.7 µg/mL). This molecule displayed a log distribution coefficient (logD) in data set [6] of 4.5. In [12], this molecule yielded an AUC of 1.5 µM·h. Further, in data set [13], the peak level (Cmax) was 600 nM. Moreover, the Occ in data set [14], in [15], in data set [16] and in data set [17] was 100% each time.

Take `C=CC(=O)N1CC2(CC(n3nc(-c4cccnc4)c(-c4c(Cl)ccc5[nH]ncc45)c3C)C2)C1`: the Ratio in data set [1] came to 1.3 mM⁻¹ s⁻¹. Besides, the half-maximal inhibitory concentration (IC50) in data set [3] amounted to 500 nM.

With `C=CC(=O)N1CC2(CC(n3nc(-c4ccc5nn(CCOC)cc5c4)c(-c4c(Cl)c(C)cc5[nH]ncc45)c3C)C2)C1`, the Ratio in [1] worked out at 225 mM⁻¹ s⁻¹. The IC50 in [3] was found to be 4 nM. The Papp A→B at 2 h, 10 µM in data set [4] was 5.4 ×10⁻⁶ cm/s. The same molecule registered a solubility in [5] of 30 µM (≈ 17.1 µg/mL). For the same molecule, the log distribution coefficient (logD) in data set [6] was 4.2. For the same molecule, in data set [12], the AUC worked out at 7.3 µM·h. The same molecule registered a Cmax in data set [13] of 4300 nM. In addition, the Occ turned out to be 37% in data set [18], 78% in [15], 45% in data set [19] and 59% in [17].

On to `C=CC(=O)Nc1ccc(-c2nn(C(C)C)c(-c3c(C)ccc4[nH]ncc34)c2C)c(F)c1`, for which the Ratio in data set [1] came out at 0.2 mM⁻¹ s⁻¹. For the same molecule, the T1/2 in data set [2] is 57 min.

With `C=CC(=O)N1CC2(CC(n3nc(-c4cccnc4)c(-c4c(Cl)c(C)cc5[nH]ncc45)c3C(F)F)C2)C1`, the Ratio in [1] turned out to be 3 mM⁻¹ s⁻¹.

`C=CC(=O)N1CC2(CC(n3nc(-c4ccccn4)c(-c4c(Cl)c(C)cc5[nH]ncc45)c3C)C2)C1`: in data set [1], the Ratio was determined as 7 mM⁻¹ s⁻¹.
